Results on two compounds are retold here after patent US20100240746A1, “STEREOISOMERS OF TRICYCLODECAN-9-YL-XANTHOGENATE” (LUMAVITA AG, priority 2007, published 2010).

Data set [1] concerns the target T1, phosphatidylcholine-specific phospholipase C (PC-PLC) (Bacillus cereus, UniProt P09598).
T1 construct: purchased Invitrogen
The data set can be described thus: Amplex Red phosphatidylcholine-specific phospholipase C (PC-PLC) inhibition assay. The format is biochemical, B. cereus. The conditions noted are these: 30 min at 37° C., triplicate. How it is done:
(§1) The inhibitory activities of optically active potassium salts of (+)- and (−)-O-exo/C-exo-tricyclo [5.2.1.0^2,6]-dec-9-yl-xanthic acid 1A ((+)- and (−)-enantiomers 1A) against phosphatidylcholine-specific phospholipase C were evaluated, together with D609 and potassium salt of racemic O-exo/C-exo xanthic acid 1A (racemic 1A), using Amplex Red phosphatidylcholine-specific phospholipase C(PC-PLC) assay kit, which was obtained from Invitrogen (Calsbad, Calif.). D609 was obtained from Sigma Aldrich.
(§2) An Amplex Red stock solution (˜20 mM), a working reaction buffer, and a horseradish peroxidase stock solution (200 U/mL), a H2O2 working solution (20 mM), a choline oxidate stock solution (20 U/mL), an alkaline phosphatase stock solution (400 U/mL), and a B. cereus PC-PLC stock solution (10 U/mL) were prepared according to the instruction of the assay kit. The stock solution (100 mg/mL) for each test compound was also prepared by dissolving the compound in water 2 hr prior to the start of the experiment.
(§3) A working Amplex Red/HRP/lecithin solution was prepared by adding 200 μL of Amplex Red reagent stock solution, 100 μL of HRP stock solution, 200 μL of alkaline phosphatase stock solution, 100 μL of choline oxidase stock solution, and 78 μL of the lecithin solution to […] of the working reaction buffer. PC-PLC solution (0.2 U/mL) was prepared by diluting the PC-PLC stock solution with the working reaction buffer to the desired concentration.
(§4) The test compound (25 μL) at a serious of concentrations was pipetted into a 96 well plate. For uninhibited PC-PLC controls and non-PC-PLC controls, 25 μL of water was added. After the addition of 50 μL of the Amplex Red/HRP/lecithin working solution, the reaction was initiated by adding 25 μL of PC-PLC solution to each well. To the non-PC-PLC controls, 25 μL of water was added instead of PC-PLC solution. The experiment was performed in triplicate. The reactions were protected from light. After incubated for 30 min at 37° C., the reactions were measured with a fluorescence microplate reader using excitation at 550 nm and emission detection at 590 nm. The fluorescent data obtained were corrected for background fluorescence by subtracting the values obtained from the non-PC-PLC controls.

Data set [2] relates to Calu-6 cells. The data set can be described thus: Cytotoxicity assay in Calu-6 cells (crystal violet). The data set is classed as cell-based. To be noted: 48 hr. How it is done: (§5) Calu-6 cells and RITA cells were grown in DMEM cell culture medium containing 10% fetal calf serum in CO2 incubator under 5% CO2 at 37° C. with 100% humidity.
(§6) For cytotoxicity assay, Calu-6 cells were seeded in 96 well plates at a density of 3×10^6 cells per plate in the DMEM cell culture medium. The plates were incubated at 37° C. in the presence of 5% CO2 for 24 hr. The DMEM cell culture medium in the plates was exchanged with fresh DMEM cell culture medium containing test compounds at a series of concentrations. The plates were incubated at 37° C. in the presence of 5% CO2 for 48 hr. The plates were then washed with PBS, fixed with 3% formaldehyde solution containing 0.9% NaCl for 1 min, washed by water for 10 sec, and dried overnight. For detection, the plates were stained with crystal violet solution for 5 min at room temperature, washed 5 times with water, and dried at room temperature overnight. After adding ethanol/acetic acid (99:1, v/v, […]) to each well, the plates were measured at 595 nm using an ELISA reader. A dose response curve was obtained for each compound tested by plotting the mean values of the optical densities against compound concentration.

Data set [3] has as its target T2, B. cereus PC-PLC (phosphatidylcholine-specific phospholipase C) (Bacillus cereus, UniProt P09598).
T2 construct: purchased Invitrogen
The data set can be described thus: Inhibition of phosphatidylcholine-specific phospholipase C (Amplex Red PC-PLC assay kit). The format is biochemical. How it is done: as §1, §2, §3
as §4, with “To the non-PC-PLC controls, 25 μL of water was added instead of PC-PLC solution. The experiment was performed in triplicate. The reactions were protected from light.” left out

Data set [4] relates to bovine papilloma virus type I (BPV-1)-transformed HEF (HEF-BPV). The data set can be described thus: Inhibition of bovine papilloma virus, BPV-infected hamster embryo fibroblasts (HEF) cell proliferation assay. The format is cell-based. To be noted: Bos taurus papillomavirus 1; HEF-BPV, 72 hr, 37° C., pH 6.8; read-out: IC50. How it is done:
(§7) Briefly, hamster embryo fibroblasts and bovine papilloma virus type I (BPV-1)-transformed HEF (HEF-BPV) were grown in Eagle's basal medium. […] and HEF cells were seeded in 96-well plates at a density of 0.5×10^6 cells per plate in DMEM cell culture medium containing 10% fetal calf serum at pH 6.8. The plates were then incubated in the presence of 5% CO2 in 100% humidity at 37° C. After 6 hr, the cell culture medium in the plates was exchanged with fresh DMEM cell culture medium containing test compounds at a series of concentrations. The plates were incubated at 37° C. for additional 72 hr. Cells in the plates were then washed with PBS, fixed with 3% formaldehyde solution containing 0.9% NaCl for 1 min, washed by water for 10 sec, and dried overnight. For detection, the plates were stained with crystal violet solution for 5 min at room temperature, washed 5 times with water, and dried at room temperature overnight. After adding ethanol/acetic acid (99:1, v/v, […]) to each well, the plates were measured at 595 nm using an ELISA reader.

The subject of data set [5] is Herpes simplex virus type-2 (HSV-2). The data set can be described thus: Inhibition of HSV-2 (plaque assay; Calu-6 infected, RITA cells for plaques). The format is cell-based. How it is done: as §5
(§8) For HSV-2 inhibition, Calu-6 cells were seeded in 96 well plates at a density of 3×10^6 cells per plate in the DMEM cell culture medium. The plates were incubated at 37° C. in the presence of 5% CO2 for 24 hr. The DMEM cell culture medium in the plates was removed and the cells were infected with Herpes simplex virus type-2 at 50 plaque forming units per well. After incubation at 37° C. for 60 min, test compounds in DMEM cell culture medium at a series of concentrations were added. The plates were incubated at 37° C. in the presence of 5% CO2 for 48 hr. The plates were frozen at −20° C. prior to further analysis. After thawing at room temperature, supernatants containing infectious virus particles were prepared by centrifuging the supernatant from each well at 18,000 g at 4° C. for 5 min. The supernatant was further diluted before assay.
RITA cells were seeded in 24 well Linbra plates at a density of 4×10^6 cells per plate in 2 mL of DMEM cell culture medium. The plates were incubated at 37° C. in the presence of 5% CO2 for 24 hr. After the removal of the cell culture medium, 0.1 mL of the diluted supernatants was added and the plates were incubated at 37 C for 1 hr. DMEM cell medium containing 10% fetal calf serum and 0.5% methyl cellulose was added and the plates were incubated at 37 for 48 hr. The plates were then washed with PBS, fixed with 3% formaldehyde solution containing 0.9% NaCl for 1 min, washed by water for 10 sec, and dried overnight. For detection, the plates were then stained with crystal violet solution for 5 min at room temperature, washed 5 times with water, and dried at room temperature overnight. The number of plaques was determined macroscopically. The number of plaques per well was then multiplied with the dilution factor. Dose response curves were obtained by plotting the number of plaques/0.1 mL against compound concentration. The therapeutic index was also calculated for each compound by dividing LD50 with IC50.

Data set [6] is described as follows: Cytotoxicity assay in Calu-6 cells. The format is cell-based. The conditions noted are these: human, 37° C., read-out: LD50. How it is done: as §5, §6
Data set [7] deals with phosphatidylcholine-specific phospholipase C (PC-PLC). To be noted: Amtmann 1996; Muller-Decker 1989; cited from earlier work.
Data set [8] has as its system bovine papilloma virus type I (BPV-1)-transformed HEF (HEF-BPV). The data set can be described thus: BPV-infected hamster embryo fibroblasts (HEF) cell proliferation assay. To be noted: 72 hr incubation. The format is cell-based. How it is done: as §7
Data set [9] deals with herpes simplex virus type 2. The data set can be described thus: HSV-2 inhibition in Calu-6 cells, plaque titration on RITA cells. The format is cell-based. The conditions noted are these: Human alphaherpesvirus 2, Calu-6; 48 hr, 50 plaque forming units per well. How it is done: as §5, §8
RITA cells were seeded in 24 well Linbra plates at a density of 4×10^6 cells per plate in 2 mL of DMEM cell culture medium. The plates were incubated at 37° C. in the presence of 5% CO2 for 24 hr. […] The number of plaques was determined macroscopically. […] The therapeutic index was also calculated for each compound by dividing LD50 with IC50.

SMILES strings stand for the structures. In brackets after ≈: the same amount, converted by molar mass. Like-named read-outs stand apart in the source and are kept apart here.

T1 sequence (P09598 39-283 limits assumed): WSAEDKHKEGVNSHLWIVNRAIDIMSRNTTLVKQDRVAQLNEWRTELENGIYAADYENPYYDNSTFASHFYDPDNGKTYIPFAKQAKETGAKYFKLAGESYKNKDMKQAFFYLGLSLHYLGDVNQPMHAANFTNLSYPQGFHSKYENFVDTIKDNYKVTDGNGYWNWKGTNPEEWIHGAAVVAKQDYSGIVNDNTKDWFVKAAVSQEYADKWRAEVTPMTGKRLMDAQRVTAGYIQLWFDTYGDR
T2 sequence (P09598 39-283 limits assumed): as above

Usually IC50 stands for the concentration that gives 50% inhibition. As for `S=C(S)OC1CC2CC1C1CCCC21` (stereo not drawn) [Compound D609, tricyclodecan-9-yl-xanthogenate], the IC50 was 20.49 ± 1.99 µg/mL in [1]; 89.7 µM in data set [3]; 21.6 ± 1.85 µg/mL (≈ 94.8 µM) in [4]; 30.2 ± 6.77 µg/mL (≈ 132 µM) in [5] (Human alphaherpesvirus 2, Calu-6 cells, 48 hr, 50 plaque forming units per well, read-out: IC50). The LD50 in [2] was 105.18 ± 21.97 µg/mL. The “Therapeutic Index” value in [5] (LD50 (Calu-6) divided by IC50 (HSV-2), 2880 min) is listed as 3.5. The CC50 at 48 h in [6] amounted to 105 ± 22 µg/mL (≈ 461 µM). The “inhibition of phosphatidylcholine-specific phospholipase C” value in [7] is given as “specific inhibitor”.

Turning to `S=C(S)O[C@@H]1C[C@@H]2C[C@H]1[C@H]1CCC[C@@H]21` (racemic) [Racemic 1A, racemic O-exo/C-exo xanthic acid 1A, reference compound], the IC50 in data set [1] (read-out: IC50 (converted)) is 44 µM; in data set [8], 14.55 ± 0.07 µg/mL (≈ 63.7 µM); in data set [9], 17.2 ± 5.95 µg/mL (≈ 75.2 µM). The compound further had an LD50 in [2] of 96.93 ± 7.12 µg/mL.
